Assay results: ChEMBL document CHEMBL1909046, “DrugMatrix in vitro pharmacology data”

Tests used:
Substance-P receptor = Substance-P receptor (Homo sapiens, UniProt P25103); format: cell membranes, CHO, Membrane; settings: cho; note: in other assays of this panel Not Active means under 50% inhibition at 10 µM
Adenosine receptor A2a = Adenosine receptor A2a (Homo sapiens, UniProt P29274); assay: DRUGMATRIX: Adenosine A2A radioligand binding (ligand: […]); format: cell membranes, HEK293, Membrane; settings: hek293; Not Active = under 50% inhibition at 10 µM
Adenosine receptor A3 = target: T1, Adenosine receptor A3 (Homo sapiens, UniProt P0DMS8); format: cell membranes, CHO-K1, Membrane; settings: cho-k1;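 note: radioligand binding assay with AB-MECA serving as the labeled ligand; in other assays of this panel Not Active means under 50% inhibition at 10 µM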
T1 sequence (P0DMS8 whole entry): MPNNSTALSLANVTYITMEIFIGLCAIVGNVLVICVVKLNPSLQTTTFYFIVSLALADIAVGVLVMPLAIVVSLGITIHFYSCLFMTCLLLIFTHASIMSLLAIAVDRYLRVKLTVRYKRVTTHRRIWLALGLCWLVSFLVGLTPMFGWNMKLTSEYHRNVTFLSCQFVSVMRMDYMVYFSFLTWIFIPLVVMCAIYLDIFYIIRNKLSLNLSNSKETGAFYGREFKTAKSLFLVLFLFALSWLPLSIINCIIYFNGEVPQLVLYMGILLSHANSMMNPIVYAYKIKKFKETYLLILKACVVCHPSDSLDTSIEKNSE

[1] = DRUGMATRIX: Tumor Necrosis Factor (TNF), Non-Selective radioligand binding (ligand: [125I] TNF-alpha); format: cell membranes, Membrane; settings: u-937; Not Active = under 50% inhibition at 10 µM
[2] = target: 5-hydroxytryptamine receptor 2B (Homo sapiens, UniProt P41595); format: cell membranes, CHO-K1, Membrane; settings: cho-k1; note: in other assays of this panel Not Active means under 50% inhibition at 10 µM
Glycine receptor = Glycine receptor (Rattus norvegicus, UniProt P22771+P24524+P07727+P20781); format: cell membranes, Wistar, Spinal cord, Membrane; note: in other assays of this panel Not Active means under 50% inhibition at 10 µM
[3] = DRUGMATRIX: Calcium Channel Type L, Phenylalkylamine radioligand binding (ligand: [3H] (-)-Desmethoxyverapamil (D-888)); format: cell membranes, Rattus norvegicus, Wistar, Brain, Membrane; settings: Not Active = under 50% inhibition at 10 µM
[4] = target: T2, Neuropeptide Y receptor type 2 (Homo sapiens, UniProt P49146); format: cell membranes, Membrane; settings: kan-ts; note: in other assays of this panel Not Active means under 50% inhibition at 10 µM
T2 sequence (P49146 whole entry): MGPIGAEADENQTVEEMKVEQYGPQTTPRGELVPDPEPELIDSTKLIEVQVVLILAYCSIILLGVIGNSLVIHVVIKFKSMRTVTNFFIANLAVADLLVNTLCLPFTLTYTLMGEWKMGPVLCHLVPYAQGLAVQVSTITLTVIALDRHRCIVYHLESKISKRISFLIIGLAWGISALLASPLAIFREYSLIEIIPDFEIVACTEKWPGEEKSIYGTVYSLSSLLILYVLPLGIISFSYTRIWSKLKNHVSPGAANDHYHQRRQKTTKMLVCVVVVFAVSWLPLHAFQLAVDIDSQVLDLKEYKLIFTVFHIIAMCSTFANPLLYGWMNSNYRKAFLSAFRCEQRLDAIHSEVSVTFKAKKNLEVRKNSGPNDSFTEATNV

Thromboxane-A synthase = target: T3, Thromboxane-A synthase (Homo sapiens, UniProt P24557); assay: biochemical; format: tissue-based, Platelet; settings: platelet
T3 sequence (P24557 whole entry): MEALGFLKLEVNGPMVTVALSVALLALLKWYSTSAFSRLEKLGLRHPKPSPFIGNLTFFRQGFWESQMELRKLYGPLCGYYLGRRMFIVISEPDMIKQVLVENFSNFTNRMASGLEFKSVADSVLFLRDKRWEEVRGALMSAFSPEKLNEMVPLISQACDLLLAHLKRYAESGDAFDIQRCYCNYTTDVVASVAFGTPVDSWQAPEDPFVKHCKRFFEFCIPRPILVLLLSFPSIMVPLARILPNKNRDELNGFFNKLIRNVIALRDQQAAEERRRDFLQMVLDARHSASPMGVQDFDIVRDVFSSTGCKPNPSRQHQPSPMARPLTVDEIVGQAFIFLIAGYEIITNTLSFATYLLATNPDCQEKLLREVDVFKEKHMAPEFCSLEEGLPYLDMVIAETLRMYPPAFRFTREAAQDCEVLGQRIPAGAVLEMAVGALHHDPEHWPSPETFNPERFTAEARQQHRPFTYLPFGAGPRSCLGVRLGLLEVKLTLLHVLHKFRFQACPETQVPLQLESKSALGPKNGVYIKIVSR

[5] = DRUGMATRIX: Glutamate, Kainate radioligand binding (ligand: [3H] Kainic acid); format: cell membranes, Rattus norvegicus, Wistar, Brain, Membrane; settings: Not Active = under 50% inhibition at 10 µM
[6] = target: Platelet-activating factor receptor (Homo sapiens, UniProt P25105); assay: biochemical; format: tissue-based; settings: platelet; note: in other assays of this panel Not Active means under 50% inhibition at 10 µM
[7] = target: Mitogen-activated protein kinase 14 (Homo sapiens, UniProt Q16539); design: species or system Escherichia coli
Caspase-1 = target: T4, Caspase-1 (Homo sapiens, UniProt P29466); design: species or system Escherichia coli
T4 sequence (P29466 whole entry): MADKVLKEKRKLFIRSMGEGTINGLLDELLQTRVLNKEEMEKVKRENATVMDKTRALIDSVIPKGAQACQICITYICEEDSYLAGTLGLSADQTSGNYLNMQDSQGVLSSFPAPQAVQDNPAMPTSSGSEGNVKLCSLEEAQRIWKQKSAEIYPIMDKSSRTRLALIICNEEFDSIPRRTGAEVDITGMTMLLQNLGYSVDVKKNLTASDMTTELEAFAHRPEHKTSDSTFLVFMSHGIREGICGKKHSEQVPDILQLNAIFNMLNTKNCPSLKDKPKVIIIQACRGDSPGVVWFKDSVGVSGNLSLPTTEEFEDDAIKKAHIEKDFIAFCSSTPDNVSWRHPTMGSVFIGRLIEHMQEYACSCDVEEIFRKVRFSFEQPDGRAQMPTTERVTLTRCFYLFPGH

D(1A) dopamine receptor = D(1A) dopamine receptor (Homo sapiens, UniProt P21728); assay: DRUGMATRIX: Dopamine D1 radioligand binding (ligand: [3H] SCH-23390); format: cell membranes, CHO, Membrane; settings: cho; Not Active = under 50% inhibition at 10 µM
[8] = target: T5, C-C chemokine receptor type 4 (Homo sapiens, UniProt P51679); format: cell membranes, Membrane; settings: chem-1; note: in other assays of this panel Not Active means under 50% inhibition at 10 µM
T5 sequence (P51679 whole entry): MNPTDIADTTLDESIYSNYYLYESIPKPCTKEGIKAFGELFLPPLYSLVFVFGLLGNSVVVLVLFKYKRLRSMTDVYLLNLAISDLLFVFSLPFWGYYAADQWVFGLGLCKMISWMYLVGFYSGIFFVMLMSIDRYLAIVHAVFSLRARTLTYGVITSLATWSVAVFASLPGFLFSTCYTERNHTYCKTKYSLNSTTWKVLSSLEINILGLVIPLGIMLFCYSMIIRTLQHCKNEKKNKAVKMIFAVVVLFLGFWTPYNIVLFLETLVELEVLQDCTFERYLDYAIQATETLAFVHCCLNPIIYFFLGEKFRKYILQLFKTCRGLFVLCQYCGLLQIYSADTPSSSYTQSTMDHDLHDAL

5-hydroxytryptamine receptor 2B, sequence (P41595 whole entry): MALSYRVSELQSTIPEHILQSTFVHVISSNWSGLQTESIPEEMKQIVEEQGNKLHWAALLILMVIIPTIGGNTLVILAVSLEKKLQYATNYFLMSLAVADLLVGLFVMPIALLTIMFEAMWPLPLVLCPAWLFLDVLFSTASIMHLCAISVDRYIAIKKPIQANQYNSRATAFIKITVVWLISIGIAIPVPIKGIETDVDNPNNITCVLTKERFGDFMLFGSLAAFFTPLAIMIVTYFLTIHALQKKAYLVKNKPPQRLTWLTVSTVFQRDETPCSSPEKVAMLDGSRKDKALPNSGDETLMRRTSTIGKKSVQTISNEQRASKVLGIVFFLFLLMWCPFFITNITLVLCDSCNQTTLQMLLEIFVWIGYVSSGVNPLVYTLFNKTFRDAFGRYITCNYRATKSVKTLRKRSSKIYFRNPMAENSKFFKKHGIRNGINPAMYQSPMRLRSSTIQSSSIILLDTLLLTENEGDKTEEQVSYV
Adenosine receptor A2a, sequence (P29274 whole entry): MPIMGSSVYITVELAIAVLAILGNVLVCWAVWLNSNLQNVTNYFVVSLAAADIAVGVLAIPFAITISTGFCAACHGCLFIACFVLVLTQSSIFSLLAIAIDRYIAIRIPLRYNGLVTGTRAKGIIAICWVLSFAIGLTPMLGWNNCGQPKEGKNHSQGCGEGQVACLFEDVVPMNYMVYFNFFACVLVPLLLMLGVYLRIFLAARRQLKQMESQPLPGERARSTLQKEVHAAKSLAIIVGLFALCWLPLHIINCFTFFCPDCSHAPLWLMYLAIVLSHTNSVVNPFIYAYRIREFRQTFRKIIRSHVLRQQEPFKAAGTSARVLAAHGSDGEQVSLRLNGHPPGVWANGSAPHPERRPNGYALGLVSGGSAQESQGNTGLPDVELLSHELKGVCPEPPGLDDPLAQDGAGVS
Platelet-activating factor receptor, sequence (P25105 whole entry): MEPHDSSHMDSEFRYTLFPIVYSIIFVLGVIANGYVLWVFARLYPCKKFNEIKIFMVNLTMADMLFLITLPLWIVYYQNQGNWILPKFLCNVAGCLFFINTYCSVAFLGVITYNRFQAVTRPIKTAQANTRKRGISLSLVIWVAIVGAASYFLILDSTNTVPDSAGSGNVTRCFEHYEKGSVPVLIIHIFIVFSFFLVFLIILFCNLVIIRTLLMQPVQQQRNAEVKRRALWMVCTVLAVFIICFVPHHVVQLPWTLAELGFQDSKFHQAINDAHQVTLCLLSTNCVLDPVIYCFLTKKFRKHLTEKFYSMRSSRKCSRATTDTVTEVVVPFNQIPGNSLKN
Mitogen-activated protein kinase 14, sequence (Q16539 whole entry): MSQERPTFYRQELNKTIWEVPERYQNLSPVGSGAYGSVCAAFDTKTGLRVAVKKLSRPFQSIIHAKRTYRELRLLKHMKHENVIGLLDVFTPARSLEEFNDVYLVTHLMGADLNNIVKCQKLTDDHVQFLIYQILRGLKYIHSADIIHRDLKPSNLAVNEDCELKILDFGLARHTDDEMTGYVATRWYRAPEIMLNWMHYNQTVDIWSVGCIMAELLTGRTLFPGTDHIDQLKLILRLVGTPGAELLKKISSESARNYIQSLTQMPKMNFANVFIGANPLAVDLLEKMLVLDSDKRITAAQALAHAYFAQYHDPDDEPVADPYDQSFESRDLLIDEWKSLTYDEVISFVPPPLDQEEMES
Substance-P receptor, sequence (P25103 whole entry): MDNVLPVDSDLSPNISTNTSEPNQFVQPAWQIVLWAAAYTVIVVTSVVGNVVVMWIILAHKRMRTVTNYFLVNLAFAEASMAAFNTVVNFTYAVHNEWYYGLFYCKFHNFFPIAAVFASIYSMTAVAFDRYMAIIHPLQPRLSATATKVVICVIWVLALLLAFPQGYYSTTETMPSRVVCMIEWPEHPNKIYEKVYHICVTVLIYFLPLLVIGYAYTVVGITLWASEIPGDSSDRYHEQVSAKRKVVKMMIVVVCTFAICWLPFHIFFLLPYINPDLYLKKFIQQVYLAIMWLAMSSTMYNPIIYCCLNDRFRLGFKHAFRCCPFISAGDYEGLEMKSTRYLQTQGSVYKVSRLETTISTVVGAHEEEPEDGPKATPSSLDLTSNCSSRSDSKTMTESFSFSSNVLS
D(1A) dopamine receptor, sequence (P21728 whole entry): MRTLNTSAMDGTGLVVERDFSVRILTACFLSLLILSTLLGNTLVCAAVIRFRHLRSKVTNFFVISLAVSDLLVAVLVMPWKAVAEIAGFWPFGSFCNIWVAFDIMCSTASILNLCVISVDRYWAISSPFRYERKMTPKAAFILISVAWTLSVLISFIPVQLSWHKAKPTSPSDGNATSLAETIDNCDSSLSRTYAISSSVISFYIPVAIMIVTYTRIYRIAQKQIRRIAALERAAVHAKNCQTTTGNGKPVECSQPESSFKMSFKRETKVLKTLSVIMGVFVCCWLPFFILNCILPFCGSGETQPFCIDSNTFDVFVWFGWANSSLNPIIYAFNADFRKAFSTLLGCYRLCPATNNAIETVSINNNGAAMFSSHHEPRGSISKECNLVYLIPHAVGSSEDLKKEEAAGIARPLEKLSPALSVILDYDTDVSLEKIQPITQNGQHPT

COc1c(C)c2c(c(O)c1C/C=C(\C)CCC(=O)OCCN1CCOCC1)C(=O)OC2 [MYCOPHENOLATE MOFETIL]
Not Active: IC50 (Substance-P receptor) | IC50 (Adenosine receptor A2a) | IC50 (Adenosine receptor A3) | IC50 [1] | Ki [1] | IC50 [2] | IC50 (Glycine receptor) | IC50 [3] | Ki [3] | IC50 [4] | IC50 (Thromboxane-A synthase) | IC50 [5] | Ki [5] | IC50 [6] | IC50 [7] | IC50 (Caspase-1) | IC50 (D(1A) dopamine receptor) | IC50 [8]

NNc1ccccc1 [PHENYLHYDRAZINE]
Not Active: IC50 (Substance-P receptor) | IC50 (Adenosine receptor A2a) | IC50 (Adenosine receptor A3) | IC50 [1] | Ki [1] | IC50 [2] | IC50 (Glycine receptor) | IC50 [3] | Ki [3] | IC50 [4] | IC50 (Thromboxane-A synthase) | IC50 [5] | Ki [5] | IC50 [6] | IC50 [7] | IC50 (Caspase-1) | IC50 (D(1A) dopamine receptor) | IC50 [8]

CC(=O)[C@H]1CC[C@H]2[C@@H]3CCC4=CC(=O)CC[C@]4(C)[C@H]3CC[C@]12C [PROGESTERONE]
Not Active: IC50 (Substance-P receptor) | IC50 (Adenosine receptor A2a) | IC50 (Adenosine receptor A3) | IC50 [1] | Ki [1] | IC50 [2] | IC50 (Glycine receptor) | IC50 [3] | Ki [3] | IC50 [4] | IC50 (Thromboxane-A synthase) | IC50 [5] | Ki [5] | IC50 [6] | IC50 [7] | IC50 (Caspase-1) | IC50 (D(1A) dopamine receptor) | IC50 [8]

NC(=O)c1ncn([C@@H]2O[C@H](CO)[C@@H](O)[C@H]2O)n1 [RIBAVIRIN]
Not Active: IC50 (Substance-P receptor) | IC50 (Adenosine receptor A2a) | IC50 (Adenosine receptor A3) | IC50 [1] | Ki [1] | IC50 [2] | IC50 (Glycine receptor) | IC50 [3] | Ki [3] | IC50 [4] | IC50 (Thromboxane-A synthase) | IC50 [5] | Ki [5] | IC50 [6] | IC50 [7] | IC50 (Caspase-1) | IC50 (D(1A) dopamine receptor) | IC50 [8]

O=[N+]([O-])c1cc([As](=O)(O)O)ccc1O [ROXARSONE]
Not Active: IC50 (Substance-P receptor) | Ki (Substance-P receptor) | IC50 (Adenosine receptor A2a) | Ki (Adenosine receptor A2a) | IC50 (Adenosine receptor A3) | Ki (Adenosine receptor A3) | IC50 [1] | Ki [1] | IC50 [2] | Ki [2] | IC50 (Glycine receptor) | Ki (Glycine receptor) | IC50 [3] | Ki [3] | IC50 [4] | Ki [4] | IC50 (Thromboxane-A synthase) | Ki (Thromboxane-A synthase) | IC50 [5] | Ki [5] | IC50 [6] | Ki [6] | IC50 [7] | Ki [7] | IC50 (Caspase-1) | Ki (Caspase-1) | IC50 (D(1A) dopamine receptor) | Ki (D(1A) dopamine receptor) | IC50 [8] | Ki [8]

CC[C@H]1OC(=O)[C@H](C)[C@@H](O[C@H]2C[C@@](C)(OC)[C@@H](O)[C@H](C)O2)[C@H](C)[C@@H](O[C@@H]2O[C@H](C)C[C@H](N(C)C)[C@H]2O)[C@](C)(O)C[C@@H](C)/C(=N\OCOCCOC)[C@H](C)[C@@H](O)[C@]1(C)O [ROXITHROMYCIN]
Not Active: IC50 (Substance-P receptor) | IC50 (Adenosine receptor A2a) | IC50 (Adenosine receptor A3) | IC50 [1] | Ki [1] | IC50 [2] | IC50 (Glycine receptor) | IC50 [3] | Ki [3] | IC50 [4] | IC50 (Thromboxane-A synthase) | IC50 [5] | Ki [5] | IC50 [6] | IC50 [7] | IC50 (Caspase-1) | IC50 (D(1A) dopamine receptor) | IC50 [8]

NC(=O)c1ccccc1O [SALICYLAMIDE]
Not Active: IC50 (Substance-P receptor) | IC50 (Adenosine receptor A2a) | IC50 (Adenosine receptor A3) | IC50 [1] | Ki [1] | IC50 [2] | IC50 (Glycine receptor) | IC50 [3] | Ki [3] | IC50 [4] | IC50 (Thromboxane-A synthase) | IC50 [5] | Ki [5] | IC50 [6] | IC50 [7] | IC50 (Caspase-1) | IC50 (D(1A) dopamine receptor) | IC50 [8]
